What was measured:
panel of trained testers = assay: Taste profile of the pure substance in saline or sugar solution, tasting by a panel of trained testers; type: in vivo, human; settings: for Taste profile: pure substance in saline or sugar solution; for Umami character: own tests, tasting
Source text: The ethyl ester (3) of a partially hydrogenated geranyl derivate has already been described in the literature (Maslozhirovaya Promyshlennost 1983, 4, 26-27). In the context of our own tests the corresponding methyl ester (4) during tasting by a panel of trained testers was described as very neutral; the corresponding methyl amine (5) was assigned fruity notes (see Table 2 contained within the examples of the present text). In the following, selected substances manufactured according to the general instructions described above are presented. In each case the taste profiles have been determined by determining the taste impression of the respective substance as a pure substance in saline or sugar solution and therefore deviate from the taste impressions (in beef extracts) shown in Table 1 and FIG. 1. The following structures are further examples from this substance class, prepared and tasted according to AAV 1 and AAV 2—on the basis of various alcohols and amines.

[1] = Sensory profile in American beef extract base (Table 1, FIG. 1); type: in vivo; set-up: scale not given here
Source text: This is also shown in Table 1 and the spider diagram in FIG. 1, in which an American beef extract as a base is compared with such a base plus the addition of 10 ppm of a compound (I) according to the invention and/or 10 ppm of a compound of formula (II) according to the invention and with such a base plus the addition of 0.05 weight % of MSG (monosodium glutamate).

[2] = tested on: panel of trained test persons; assay: Application in green tea drink, tasting panel; type: in vivo, human; settings: green tea drink with 0.008 weight % of a 1% solution in propylene glycol
Method: The green tea concentrate is mixed with a 1% solution of N-((E)-3,7-dimethyl-octa-2,6-dienyl)-oxalamide methyl ester (I) in propylene glycol. Then it is topped up with demineralized water and thoroughly mixed again. The product is then filtered, packaged ready for consumption and sterilized at 118° C.

[3] = beef extract + 0.05 weight % MSG

CCOC(=O)C(=O)NC/C=C(\C)CCC=C(C)C [formula (6), N-((E)-3,7-dimethyl-octa-2,6-dienyl)-oxalic acid amide-ethyl-ester]
Taste profile (panel of trained testers): musty, herbaceous and chemical

COC(=O)C(=O)NCC=C(C)C
Taste profile (panel of trained testers): taste of its own, sol- vent

COC(=O)C(=O)NC/C=C(/C)CCC=C(C)C [formula (III), N-((Z)-3,7-dimethyl-octa-2,6-dienyl)-oxalic acid amide-methyl-ester]
Umami character (panel of trained testers): do not in fact have any umami character
Taste profile (panel of trained testers): musty, bitter, long-lasting

CNC(=O)C(=O)NCCC(C)CCC=C(C)C (stereo not shown) [formula (5)]
Taste profile (panel of trained testers; listed as (5)): fruity notes
Taste profile (panel of trained testers; listed as drawing 24): fruity

CCNC(=O)C(=O)NC/C=C(\C)CCC=C(C)C [formula (7)]
Taste profile (panel of trained testers; listed as (7)): very neutral
Taste profile (panel of trained testers; listed as drawing 19): neutral

CNC(=O)C(=O)OC/C=C(\C)CCC=C(C)C
Taste profile (panel of trained testers): soapy, flowery, per- fumey

N[C@@H](CCC(=O)O)C(=O)[O-].[Na+] [MSG, monosodium glutamate, reference compound]
Baked, roasted [1, 3]: 5.00
Bitter [1, 3]: 1.35
Meaty [1, 3]: 5.47
Metallic [1, 3]: 3.47
Mouth-watering [1, 3]: 4.53
Mouthfeel [1, 3]: 5.41
Salty [1, 3]: 3.29
Sour [1, 3]: 2.94
Sweet [1, 3]: 2.41
Tenacity, long-lasting [1, 3]: 5.06

COC(=O)C(=O)NCCC(C)CCCC(C)C (stereo not shown)
Taste profile (panel of trained testers): fatty, bitter, metallic

CC(C)=CCC/C(C)=C/CNC(=O)C(=O)NC/C=C(\C)CCC=C(C)C [formula (1), N,N′-Bis-((E)-3,7-dimethyl-octa-2,6-dienyl)-oxalamide]
Umami character (panel of trained testers): did not demonstrate any umami character
Taste profile (panel of trained testers): neutral, slightly hot

COC(=O)C(=O)NCCC(C)CCC=C(C)C (stereo not shown) [formula (4)]
Taste profile (panel of trained testers; listed as (4)): very neutral
Taste profile (panel of trained testers; listed as drawing 23): neutral

CNC(=O)C(=O)NCC=C(C)C
Taste profile (panel of trained testers): neutral

CC(C)=CCC/C(C)=C\CNC(=O)C(=O)NC/C=C(/C)CCC=C(C)C [formula (2), N,N′-Bis-((Z)-3,7-dimethyl-octa-2,6-dienyl)-oxalamide]
Umami character (panel of trained testers): did not demonstrate any umami character
Taste profile (panel of trained testers): neutral, slight burning

CNC(=O)C(=O)NC/C=C(/C)CCC=C(C)C [formula (IV), N-((Z)-3,7-dimethyl-octa-2,6-dienyl)-N′-methyl-oxalamide]
Umami character (panel of trained testers): do not in fact have any umami character
Taste profile (panel of trained testers): sour

COC(=O)C(=O)NC/C=C(\C)CCC=C(C)C [formula (I), N-((E)-3,7-dimethyl-octa-2,6-dienyl)-oxalic acid amide-methyl-ester]
Baked, roasted ([1]; beef extract + 10 ppm compound): 3.55
Bitter ([1]; beef extract + 10 ppm compound): 1.36
Meaty ([1]; beef extract + 10 ppm compound): 4.55
Metallic ([1]; beef extract + 10 ppm compound): 3.82
Mouth-watering ([1]; beef extract + 10 ppm compound): 3.64
Mouthfeel ([1]; beef extract + 10 ppm compound): 4.45
Salty ([1]; beef extract + 10 ppm compound): 2.64
Sour ([1]; beef extract + 10 ppm compound): 2.91
Sweet ([1]; beef extract + 10 ppm compound): 1.36
Tenacity, long-lasting ([1]; beef extract + 10 ppm compound): 3.73
Umami character (panel of trained testers): clear umami taste
Taste profile (panel of trained testers): sweet, full, prickling, umami
Taste compared with the unflavored green tea base [2]: markedly preferable

CNC(=O)C(=O)NCCC(C)CCCC(C)C (stereo not shown)
Taste profile (panel of trained testers): neutral

CNC(=O)C(=O)NC/C=C(\C)CCC=C(C)C [formula (II), N-((E)-3,7-dimethyl-octa-2,6-dienyl)-N′-methyl-oxalamide]
Baked, roasted ([1]; beef extract + 10 ppm compound): 4.27
Bitter ([1]; beef extract + 10 ppm compound): 1.00
Meaty ([1]; beef extract + 10 ppm compound): 5.09
Metallic ([1]; beef extract + 10 ppm compound): 3.55
Mouth-watering ([1]; beef extract + 10 ppm compound): 4.14
Mouthfeel ([1]; beef extract + 10 ppm compound): 4.73
Salty ([1]; beef extract + 10 ppm compound): 2.82
Sour ([1]; beef extract + 10 ppm compound): 2.45
Sweet ([1]; beef extract + 10 ppm compound): 2.27
Tenacity, long-lasting ([1]; beef extract + 10 ppm compound): 4.64
Umami character (panel of trained testers): clear umami taste
Taste profile (panel of trained testers): meaty, full, metallic, umami

From US8273398B2, “Geranylamine derivates of oxalic acid” (Symrise AG, priority 2008, dated 2012)
